The compounds below were run against T1, human CGRP receptor (Homo sapiens, UniProt O60894+Q16602) (assay: Binding studies with SK-N-MC cells (125I-CGRP displacement from membranes)). Details: 50 pM 125I-iodotyrosyl-CGRP, 180 min, ambient temperature.
T1 construct: SK-N-MC membranes (˜20 μg protein) are incubated for 180 minutes at ambient temperature; endogenous in cells; host or cells: SK-N-MC cells (membranes)
T1 sequence (Q16602 23-461): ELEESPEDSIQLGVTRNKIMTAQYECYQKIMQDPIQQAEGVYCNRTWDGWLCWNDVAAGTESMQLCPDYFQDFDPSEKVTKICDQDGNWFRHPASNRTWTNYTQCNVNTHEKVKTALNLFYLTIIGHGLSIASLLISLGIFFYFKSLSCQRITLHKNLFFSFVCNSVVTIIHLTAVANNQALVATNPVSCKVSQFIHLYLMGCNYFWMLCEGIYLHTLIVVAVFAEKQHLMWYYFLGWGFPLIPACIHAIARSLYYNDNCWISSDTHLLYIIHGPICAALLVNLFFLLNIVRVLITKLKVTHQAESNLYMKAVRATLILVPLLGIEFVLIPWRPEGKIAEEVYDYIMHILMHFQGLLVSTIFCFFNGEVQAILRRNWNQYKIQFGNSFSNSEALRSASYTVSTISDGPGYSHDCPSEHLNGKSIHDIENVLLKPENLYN
T1 sequence (O60894 27-148): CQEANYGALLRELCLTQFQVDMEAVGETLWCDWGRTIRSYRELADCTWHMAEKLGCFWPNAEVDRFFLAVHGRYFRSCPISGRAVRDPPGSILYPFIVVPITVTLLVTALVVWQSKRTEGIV
Protocol: A. Binding Studies with SK-N-MC Cells (Expressing the Human CGRP Receptor)
SK-N-MC membranes (˜20 μg protein) are incubated for 180 minutes at ambient temperature with 50 pM ^125I-iodotyrosyl-Calcitonin-Gene-Related Peptide and increasing concentrations of the test substances in a total volume of 250 μl (assay buffer: 10 mM tris, 50 mM NaCl, 5 mM MgCl2, 1 mM EDTA, pH=7.4). The incubation is ended by rapid filtration through GF/B-glass fibre filters treated with polyethyleneimine (0.1%) using a cell harvester. The protein-bound radioactivity is measured using a gamma counter. Non-specific binding is defined as the bound radioactivity after the presence of 1 μM BIBN4096BS during incubation.
The concentration binding curves are analysed using computer-aided non-linear curve fitting.
For `COc1ccc2c(c1)CCN(C1CCN(c3cc(Oc4cc(C)c5[nH]c(=O)oc5c4)ncn3)CC1)C(=O)N2` [(1)], the Ki was 2 nM.
`Cc1cc(Oc2cc(N3CCC(n4c(=O)[nH]c5ncccc54)CC3)ncn2)cc2oc(=O)n(C)c12` [(2)] showed a Ki of 20 nM.
`COc1ccc2c(c1)CCN(C1CCN(c3cc(Oc4cc(C)c5c(c4)oc(=O)n5C)ncn3)CC1)C(=O)N2` [(3)] was tested, and the Ki was 23 nM.
Work on `Cc1ccc(Oc2cc(N3CCC(n4c(=O)[nH]c5ncccc54)CC3)ncn2)cc1C` [(4)] yielded a Ki of 175 nM.
With `Cc1cc(Oc2cc(N3CCC(n4c(=O)[nH]c5ncccc54)CC3)ncn2)cc2oc(=O)[nH]c12` [(5)] the Ki was 3 nM.
`Cc1cc(Nc2cc(N3CCC(n4c(=O)[nH]c5ncccc54)CC3)ncn2)cc2oc(=O)[nH]c12` [(6)] showed a Ki of 4 nM.
`COc1ccc2c(c1)CCN(C1CCN(c3cc(Nc4cc(C)c5[nH]c(=O)oc5c4)ncn3)CC1)C(=O)N2` [(7)] gave a Ki of 5 nM.
`COc1ccc2c(c1)CCN(C1CCN(c3cc(Nc4cc(C)c5[nH]c(C)nc5c4)ncn3)CC1)C(=O)N2` [(8)] gave a Ki of 12 nM.
Work on `Cc1nc2cc(Nc3cc(N4CCC(n5c(=O)[nH]c6c7ccccc7ncc65)CC4)ncn3)cc(C)c2[nH]1` [(9)] yielded a Ki of 37 nM.
In the case of `COc1ccc2c(c1)CCN(C1CCN(c3cc(Nc4cc(C)c5c(c4)oc(=O)n5C)ncn3)CC1)C(=O)N2` [(10)], the Ki is reported as 49 nM.
In the case of `COc1ccc2c(c1)CCN(C1CCN(c3cc(Nc4cc(C)c5[nH]ncc5c4)ncn3)CC1)C(=O)N2` [(11)], the Ki is reported as 54 nM.
`COc1ccc2c(c1)CCN(C1CCN(c3cc(Nc4cc(C)c5c(c4)nc(C)n5C)ncn3)CC1)C(=O)N2` [(12)] was tested, and the Ki was 61 nM.
Compound `Cc1nc2cc(Nc3cc(N4CCC(n5c(=O)[nH]c6ncccc65)CC4)ncn3)cc(C)c2[nH]1` [(13)] has a Ki of 68 nM.
In the case of `Cc1cc(Nc2cc(N3CCC(n4c(=O)[nH]c5ncccc54)CC3)ncn2)cc2oc(=O)n(C)c12` [(14)], the Ki is reported as 81 nM.
`COc1ccc2c(c1)CCN(C1CCN(c3cc(N(C(C)=O)c4cc(C)c5c(c4)oc(=O)n5C)ncn3)CC1)C(=O)N2` [(15)] was tested, and the Ki was 102 nM.
Work on `COc1ccc2c(c1)CCN(C1CCN(c3cc(Nc4cc(C)c5oc(C)nc5c4)ncn3)CC1)C(=O)N2` [(16)] yielded a Ki of 187 nM.
`COc1ccc2c(c1)CCN(C1CCN(c3cc(Nc4cc(C)c(O)c(C)c4)ncn3)CC1)C(=O)N2` [(17)] gave a Ki of 198 nM.
`Cc1cc(Nc2cc(Nc3ccc4c(c3)CC3(C4)C(=O)Nc4ncccc43)ncn2)cc2oc(=O)[nH]c12` (stereo not drawn) [(18)] gave a Ki of 227 nM.
Compound `Cc1nc2cc(Nc3cc(Nc4ccc5c(c4)CC4(C5)C(=O)Nc5ncccc54)ncn3)cc(C)c2[nH]1` (stereo not drawn) [(19)] has a Ki of 241 nM.
Compound `Cc1nc2cc(Nc3cc(N4CCC(n5c(=O)[nH]c6ncccc65)CC4)ncn3)cc(C)c2o1` [(20)] has a Ki of 481 nM.
Work on `COc1ccc2c(c1)CCN(C1CCN(c3cc(Sc4cc(C)c5[nH]c(=O)oc5c4)ncn3)CC1)C(=O)N2` [(21)] yielded a Ki of 2 nM.
Compound `COc1ccc2c(c1)CCN(C1CCN(c3cc(Oc4cc(C)c5[nH]c(=O)oc5c4)nc(C)n3)CC1)C(=O)N2` [(22)] has a Ki of 5 nM.
In the case of `Cc1cc(Oc2cc(N3CCC4(CC3)OC(=O)Nc3ncccc34)ncn2)cc2oc(=O)[nH]c12` [(23)], the Ki is reported as 1 nM.
Work on `Cc1nc(Nc2cc(C)c3[nH]c(=O)oc3c2)cc(N2CCC(n3c(=O)[nH]c4ncccc43)CC2)n1` [(24)] yielded a Ki of 3 nM.
`COc1ccc2c(c1)CCN(C1CCN(c3cc([S+]([O-])c4cc(C)c5[nH]c(=O)oc5c4)ncn3)CC1)C(=O)N2` (stereo not drawn) [(25)] showed a Ki of 18 nM.
`COc1ccc2c(c1)CCN(C1CCN(c3cc(S(=O)(=O)c4cc(C)c5[nH]c(=O)oc5c4)ncn3)CC1)C(=O)N2` [(26)] gave a Ki of 45 nM.
Work on `COc1ccc2c(c1)CCN(C1CCN(c3cc(Oc4cnc5ccccc5n4)ncn3)CC1)C(=O)N2` [(27)] yielded a Ki of 207 nM.
`COc1ccc2c(c1)CCN(C1CCN(c3cc(Oc4cc(C)c5nc(CC#N)[nH]c5c4)ncn3)CC1)C(=O)N2` [(28)] gave a Ki of 4 nM.
In the case of `COc1ccc2c(c1)CCN(C1CCN(c3cc(Oc4cc(C)c5nc(C)[nH]c5c4)ncn3)CC1)C(=O)N2` [(29)], the Ki is reported as 3 nM.
`COc1ccc2c(c1)CCN(C1CCN(c3cc(Oc4cc(C)nc5ccccc45)ncn3)CC1)C(=O)N2` [(31)] showed a Ki of 129 nM.

Reference: patent publication US8952014B2, “Pyrimidine derivatives which are CGRP—antagonists” (Boehringer Ingelheim International GmbH, priority 2008, dated 2015)
